For the experiment, the system named is DUX4 expression (surrogate marker MBD3L2). As to the kind of experiment: Screening: qPCR analysis of DUX4 target gene MBD3L2 in differentiating MB200 FSHD2 muscle cells. To be noted: Homo sapiens, 40 hours, DUX4 expression inferred from surrogate marker MBD3L2 expression (qPCR, normalized to RPL30). The class given is cell-based. Here is the method: Cells and Cell Culture. Primary human myoblast cell lines, immortalized by retroviral transduction of cyclin-dependent kinase 4 (CDK4) and human telomerase reverse transcriptase (hTERT) (Stadler, et al., 2011), were obtained from the Fields Center at the University of Rochester (world-wide-web at urmc.rochester.edu/fields-center.aspx). Immortalized myoblasts were grown in Ham's F-10 Nutrient Mix (Gibco, Waltham, MA, USA) supplemented with 20% HyClone Fetal Bovine Serum (GE Healthcare Life Sciences, Pittsburgh, PA, USA), 100 U/100 μg penicillin/streptomycin (Gibco), 10 ng/ml recombinant human fibroblast growth factor (Promega Corporation, Madison, WI, USA) and 1 μM dexamethasone (Sigma-Aldrich). Differentiation of myoblasts into myotubes was achieved by switching the fully confluent myoblast monolayer into Dulbecco's Modified Eagle Medium (DMEM) (Gibco) containing 1% horse serum (Gibco), 100 U/100 μg penicillin/streptomycin, 10 μg/ml insulin (Sigma-Aldrich) and 10 μg/ml transferrin (Sigma-Aldrich) (HS/IT media) or DMEM:F12 Nutrient Mixture (1:1, Gibco) supplemented with 2% KnockOut Serum Replacement (Gibco), 100 U/100 μg penicillin/streptomycin, 10 μg/ml insulin and 10 μg/ml transferrin (KSR media) for 2-6 days.
Screening: qPCR analysis of DUX4 target genes MBD3L2. For screening compounds, differentiating MB200 FSHD2 muscle cells were exposed to BET inhibitors at a variety of concentrations for 40 hours to determine the effects of the drugs on DUX4 expression. Cell lysates were prepared using Cells-to-Ct Bulk Lysis Reagents (Invitrogen, Waltham, MA, USA). Gene expression was measured by quantitative polymerase chain reaction (qPCR) was carried out on a QuantStudio 5 (Applied Biosystems, Waltham, MA, USA) using TaqMan Gene Expression Assays (Applied Biosystems) and TaqMan Fast Virus 1-Step Master Mix (Invitrogen). The relative expression levels of DUX4 target gene methyl-CpG binding domain protein 3 like 2 (MBD3L2), was normalized to that of the reference gene ribosomal protein L30 (RPL30), which was included in multiplex (two gene) PCR reactions. TaqMan Gene Expression Assay ID numbers: MBD3L2, Hs00544743_m1; RPL30, Hs00265497_m1. Data is expressed as relative expression with the expression in absence of inhibitors set to one.
Analysis of MBD3L2 expression in cultured FSHD2 cells. DUX4 mRNA is present in very low levels, even in differentiating FSHD2 myoblasts, so DUX4 target gene MBD3L2 was used as a surrogate marker of DUX4 expression. FSHD2 patient derived muscle cells were analyzed to determine whether BET inhibitors affect MBD3L2 expression, indicating a reduction in DUX4 expression.

Consider ten compounds from patent US12636290B2, “BET inhibitors for modulating DUX4 expression in FSHD” (Saint Louis University, priority 2018, dated 2026).

Read-outs that look alike come from different tables or passages of the source.

Take `CN1CCN(CCOc2ccc(-c3ccc4cc(-c5cn(C)c(=O)c6[nH]ccc56)ccc4n3)cc2)C(C)(C)C1=O` [SLU-2241, 6-methyl-4-{2-[4-(2-(2,2,4-trimethyl-3-oxopiperazin-1-yl)ethoxy)phenyl]quinolin-6-yl}-1H-pyrrolo[2,3-c]pyridin-7(6H)-one]: the IC50 (read-out: DUX4* MT FSHD2: IC50) stood at 110 nM and the IC50 (read-out: DUX4* MT FSHD2 IC50) was found to be 110 nM.

Consider `COc1cc(-c2ccc(OCCN3[C@H](C)CN(C(C)=O)C[C@@H]3C)cc2)ccc1-c1cn(C)c(=O)c2[nH]ccc12` [SLU-2098, 4-{4′-[2-((2R,6S)-4-acetyl-2,6-dimethylpiperazin-1-yl)ethoxy)-3-methoxy-[1,1′-biphenyl]-4-yl}-6-methyl-1H-pyrrolo[2,3-c]pyridin-7(6H)-one], for which the IC50 turned out to be 310 nM (read-out: DUX4* MT FSHD2: IC50) and 310 nM (read-out: DUX4* MT FSHD2 IC50).

Consider `CN(C)CCOc1ccc(C2CCN(c3ccc(-c4cn(C)c(=O)c5[nH]ccc45)cn3)CC2)cc1` [SLU-2109, 4-{6-[4-(4-(2-(dimethylamino)ethoxy)phenyl)piperidin-1-yl]pyridin-3-yl}-6-methyl-1H-pyrrolo[2,3-c]pyridin-7(6H)-one], for which the IC50 is, setting by setting: (read-out: DUX4* MT FSHD2: IC50) 33 nM; (read-out: DUX4* MT FSHD2 IC50) 33 nM.

Regarding `C[C@@H]1C(=O)N(C)CCN1CCOc1ccc(-c2ccc3nc(-c4cn(C)c(=O)c5[nH]ccc45)ccc3c2)nc1` [SLU-2213], the IC50 (read-out: DUX4* MT FSHD2: IC50) worked out at 41 nM and the IC50 (read-out: DUX4* MT FSHD2 IC50) turned out to be 41 nM.

Consider `C[C@@H]1C(=O)N(C)CCN1CCOc1ccc(C#Cc2ccc(-c3cn(C)c(=O)c4[nH]ccc34)cc2)cc1` [SLU-2226, (R)-4-{4-[(4-(2-(2,4-dimethyl-3-oxopiperazin-1-yl)ethoxy)phenyl)ethynyl]phenyl}-6-methyl-1H-pyrrolo[2,3-c]pyridin-7(6H)-one], for which the IC50 runs as follows: (read-out: DUX4* MT FSHD2: IC50) 47 nM; (read-out: DUX4* MT FSHD2 IC50) 47 nM.

Turning to `CN1CCN(CCOc2ccc(C3CCN(c4ccc(-c5cn(C)c(=O)c6[nH]ccc56)cn4)CC3)cc2)CC1` [SLU-2114, 6-methyl-4-{6-[4-(4-(2-(4-methylpiperazin-1-yl)ethoxy)phenyl)piperidin-1-yl]pyridin-3-yl}-1H-pyrrolo[2,3-c]pyridin-7(6H)-one], the half-maximal inhibitory concentration (IC50) was 330 nM (read-out: DUX4* MT FSHD2: IC50) and 330 nM (read-out: DUX4* MT FSHD2 IC50).

For `C[C@@H]1C(=O)N(C)CCN1CCOc1ccc(-c2ccc3cc(-c4cn(C)c(=O)c5[nH]ccc45)ncc3c2)cc1` [SLU-2219, (R)-4-{7-[4-(2-(2,4-dimethyl-3-oxopiperazin-1-yl)ethoxy)phenyl]isoquinolin-3-yl}-6-methyl-1H-pyrrolo[2,3-c]pyridin-7(6H)-one], the IC50 by setting is: (read-out: DUX4* MT FSHD2: IC50) 95 nM; (read-out: DUX4* MT FSHD2 IC50) 95 nM.

As to `C[C@@H]1C(=O)N(C)CCN1CCOc1ccc(N2CCN(c3ccc(-c4cn(C)c(=O)c5[nH]ccc45)cn3)CC2)nc1` [SLU-2110, (R)-4-{6-[4-(5-(2-(2,4-dimethyl-3-oxopiperazin-1-yl)ethoxy)pyridin-2-yl)piperazin-1-yl]pyridin-3-yl}-6-methyl-1H-pyrrolo[2,3-c]pyridin-7(6H)-one], the half-inhibitory concentration (IC50) reads like this: (read-out: DUX4* MT FSHD2: IC50) 16 nM; (read-out: DUX4* MT FSHD2 IC50) 16 nM.

As for `C[C@H]1C(=O)N(C)CCN1CCOc1ccc(-c2ccc3cc(-c4cn(C)c(=O)c5[nH]ccc45)ccc3n2)cc1` [SLU-2236, (S)-4-{2-[4-(2-(2,4-dimethyl-3-oxopiperazin-1-yl)ethoxy)phenyl]quinolin-6-yl}-6-methyl-1H-pyrrolo[2,3-c]pyridin-7(6H)-one], the IC50 came out at 13 nM (read-out: DUX4* MT FSHD2: IC50) and 13 nM (read-out: DUX4* MT FSHD2 IC50).

As for `Cn1cc(-c2ccc(N3CCC4(CCN(C(=O)CO)CC4)CC3)nc2)c2cc[nH]c2c1=O` [SLU-2115, 4-{6-[9-(2-hydroxyacetyl)-3,9-diazaspiro[5.5]undecan-3-yl]pyridin-3-yl}-6-methyl-1H-pyrrolo[2,3-c]pyridin-7(6H)-one], the half-maximal inhibitory concentration (IC50) reads like this: (read-out: DUX4* MT FSHD2: IC50) 97 nM; (read-out: DUX4* MT FSHD2 IC50) 97 nM.
